Test results from patent US20030199530A1, “New compounds derived from quinazoline” (priority 2002, published 2003).

Assays:
FTase = molecular target: T1, FTase (Rattus norvegicus, UniProt Q02293+Q04631); assay: FTase enzyme test (scintillation proximity assay); type: biochemical; settings: rat brain FTase, biotinylated lamin B peptide, [3H]farnesyl pyrophosphate, 37° C., one hour; read-out: IC50 with respect to FTase
T1 construct: The two enzymes FTase and GGTase-I were purified starting from rat's brain; from tissue; host or cells: rat brain
Method: The two enzymes FTase and GGTase-I were purified starting from rat's brain. After grinding and centrifuging, the supernatant is precipitated with 30% ammonium sulphate and the resulting supernatant is subjected to another precipitation with 50% ammonium sulphate. The pellet is then passed through a column of phenyl agarose and the fractions collected after elution with sodium chloride are evaluated for their enzyme content in accordance with the “scintillation proximity assay” method described hereinbelow. The fractions corresponding to one or other of the two enzymes are then combined and frozen at −80° C. until use.
The determination of the enzymatic activity of the FTase is carried out in 96-well plates by a radioactive scintillation proximity assay method. The acceptor substrate composed of the carboxy terminal sequence of lamin B (YRASNRSCAIM) coupled to biotin is incubated in the presence of the radiolabelled donor substrate ([^3H]farnesyl pyrophosphate), and of various concentrations of test compounds in dimethyl sulphoxide (DMSO). The reaction is initiated at 37° C. by adding FTase enzyme for a duration of one hour, and is then stopped with an appropriate buffer containing a suspension of beads impregnated with scintillant. […]

[1] = system: cells transfected with v-H-ras; assay: Cell proliferation test (MTT) on RAT2 fibroblasts transfected with v-H-ras; type: cell-based; settings: Rattus norvegicus, 96 h, RAT2 transfectant, 10% serum, four days, read-out: IC50 of inhibition of growth of cells transfected by the oncogene v-H-ras
Method: a) The RAT2 line of rat fibroblasts and an appropriate transfectant for the insertion of the gene v-H-ras were used to test the effectiveness of the claimed products on cells.
The parental and transfected cells are cultured in 96-well plates for cell culture in the presence of medium containing 10% serum. Twenty four hours later, the test products are added to the same medium over a period of four days and the final quantity of cells is estimated indirectly by the cell viability method using 3-(4,5-dimethylthiazol-2-yl)-2,5-diphenyltetrazolium bromide (MTT).

- IC50 (FTase): 19 nM
SMILES: CC(C)(C)OC(=O)Nc1ccc(-n2c(=O)c3ccccc3n(CC(Cc3ccccc3)Cn3ccnc3)c2=O)cc1 (centres unmarked) [Example 2, tert-Butyl 4-(1-[2-benzyl-3-(1H-imidazol-1-yl)propyl]-2,4-dioxo-1,4-dihydro-3(2H)-quinazolinyl)phenylcarbamate]
- IC50 [1]: 9 nM
